# Measurements taken from patent US11458189B2, “Cytoprotective drugs” (BALMES TRANSPLANTATION, priority 2017, dated 2022).
# Starred links: 1 amine or outer side, 2 acyl side, 3 side chain; linkers in the order of their positions; H or OH if unused. Positions of bridges follow the written chain, without caps; N, C: chain ends. Non-standard residues stand in square brackets, D forms with d. Residues, ends and D or L forms follow the SMILES beside them. *: point of attachment. hTyr(3S-OH,4S-OH,3'-OSO3H) = N[C@H](C(=O)O)[C@H](O)[C@@H](O)c1ccc(O)c(OS(=O)(=O)O)c1; Orn(4R-OH,5R-OH) = O=C([C@H](C[C@@H](O)[C@@H](O)N[*:3])N[*:1])[*:2]; Pro(3S-OH,4S-Me) = C[C@H]1CN[C@H](C(=O)O)[C@H]1O; X1 = CCCCCOc1ccc(-c2cc(-c3ccc(C(=O)*)cc3)no2)cc1; Gln(3R-OH) = NC(=O)C[C@@H](O)[C@H](N)C(=O)O; Hyp = O=C(O)[C@@H]1C[C@@H](O)CN1
# Tested on: Rat Primary Kidney Glomerular Endothelial cells
# Experiment: Oxygen and glucose deprivation followed by replenishment, cell survival (calcein AM), rat glomerular endothelial cells;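 on Survival rate (%): 100% is hypoxia control with glucose and 0% is untreated OGD control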
# Assay type: cell-based
# Method: Anidulafungin and micafungin were tested on Human Renal Glomerular Endothelial Cells (HRGEC, Innoprot P10665), on Human Renal Proximal Tubular Epithelial Cells (HRPTEpiC, Innoprot P10662), on Human Astrocytes (HA, caltag SC-1800), on Human Cardiac Microvascular Endothelial Cells (HCMEC, Caltag SC-6000), on Human Hepatic Sinusoidal Endothelial Cells (HHSEC, Caltag SC-5000), on Rat Primary Kidney Glomerular Endothelial cells (Cellbiologics, RN-6014G) and on Bovine Brain Microvascular Endothelial Cells (BBMEC, Caltag SC-B100).
# In a first phase, these isolated, purified and cryopreserved cells are thawed and multiplied according to the supplier's recommendations in T75 or T175 flasks pre-coated with 2 μg of fibronectin/[…] (CORNING) for HRGEC, HCMEC, HHSEC and BBMEC, or 2 μg poly-L-lysin/cm^2 (Caltag SC-0403) for HRPTEpiC and HA, or 15 mL/flask 175 cm^2 gelatin-based solution (Cellbiologics) in the presence of endothelial cell supplemented growth medium ECM (P60104, INNOPROT, Caltag, SC-1001) for HRGEC, HCMEC, HHSEC, RPKGEC or BBMEC, or astrocyte cell supplemented growth medium AM (Caltag SC-1801) for HA or epithelial cell supplemented growth medium EpiCM (P60106, INNOPROT) for HRPTEpiC, at 37° C. under 5% CO2 and saturated humidity until their confluency. They are then harvested by trypsinization according to the method described by the supplier for exactly 5 minutes and then reseeded in new flasks a maximum of three times.
# To carry out the oxygen and glucose deprivation test followed by their replenishment, the cells will be seeded in 96-well black plates with transparent flat bottom (GREINER). Once a sufficient number of cells has been obtained to allow seeding of 2000 to 15000 cells per well of 96-well plates depending on the cell type, the cells are seeded in these 96-well plates previously coated with an extracellular matrix as listed above for the flasks. The cells are cultured for 5 to 8 days according to the cell type, in the presence of the same growth medium as in the flask as described above except for HRGEC and HRPTEpiC for which DMEM (DUTSCHER) with 1 g/L of supplemented glucose is used, at 37° C. under 5% CO2 and saturated humidity to obtain confluency.
# On the first day of oxygen and glucose deprivation, (5th, 6th, 7th or 8th day of culture), the culture conditions are drastically changed. The medium of all plates is removed and replaced by DMEM (DUTSCHER) medium without glucose and supplemented only with 1% penicillin-streptomycin (DUTSCHER). Anidulafungin or micafungin dissolved in dimethyl sulfoxide (DMSO) is then added to each well at the desired concentration, resulting in a maximum of 1% DMSO, and the plates are placed under hypoxia at <1% 02 and 5% CO2 at 37° C. for 24 hours of culture. Each compound was tested in a concentration range.
# After 24 hours, the growth medium is changed and replaced by a richer medium, DMEM (DUTSCHER) at 1 g/L glucose and 2% FBS (INNOPROT) and 1% penicillin-streptomycin (DUTSCHER). These media will have been pre-equilibrated at 37° C. in advance. The cells are then returned to culture at 37° C. under 20% 02 and 5% CO2 for 22h.
# After 22 hours of reoxygenation, the potential protective effect of anidulafungin or micafungin is measured by a cell viability test using calcein AM (CORNING), which is a dye substrate. The calcein AM can easily cross the cell membrane of the viable cells. The AM ester groups mask the part of the molecule that chelates calcium. Once inside the cells, the (non-fluorescent) calcein AM is hydrolyzed to (fluorescent) calcein by endogenous esterases. The resulting calcein molecule binds to calcium inside the cell and remains trapped inside the cell. These molecules emit strong green fluorescence when subjected to […] of a particular wavelength (495 nm). Since dead cells lack esterase activity, only living cells are labelled.
# This cell viability test is performed in two steps. […]
smiles,measurement,setting,value
"CCCCCOc1ccc(-c2cc(-c3ccc(C(=O)N[C@H]4C[C@@H](O)[C@@H](O)NC(=O)[C@@H]5[C@@H](O)[C@@H](C)CN5C(=O)[C@H]([C@H](O)CC(N)=O)NC(=O)[C@H]([C@H](O)[C@@H](O)c5ccc(O)c(OS(=O)(=O)O)c5)NC(=O)[C@@H]5C[C@@H](O)CN5C(=O)[C@H]([C@@H](C)O)NC4=O)cc3)no2)cc1 [Micafungin, {5-[(1S,2S)-2-[(3S,6S,9S,11R,15S,18S,20R,21R,24S,25S,26S)-3-[(1R)-2-carbamoyl-1-hydroxyethyl]-11,20,21,25-tetrahydroxy-15-[(1R)-1-hydroxyethyl]-26-methyl-2,5,8,14,17,23-hexaoxo-18-[(4-{5-[4-(pentyloxy)phenyl]-1,2-oxazol-3-yl}benzene)amido]-1,4,7,13,16,22-hexaazatricyclo[22.3.0.0]heptacosan-6-yl]-1,2-dihydroxyethyl]-2-hydroxyphenyl}oxidanesulfonic acid] (X1-[Orn(4R-OH,5R-OH)]T[Hyp][hTyr(3S-OH,4S-OH,3'-OSO3H)][Gln(3R-OH)][Pro(3S-OH,4S-Me)]; lactam 1-C)",Globalfluo assay 1,[Micafungin] log μM 0,5417339 arbitrary units
same,Globalfluo assay 2,[Micafungin] log μM 0,3464807 arbitrary units
same,Globalfluo assay 3,[Micafungin] log μM 0,4867657 arbitrary units
same,Mean globalfluo,[Micafungin] log μM 0,4583268 arbitrary units
same,Survival rate (%),[Micafungin] log μM 0,3%
same,Globalfluo assay 1,[Micafungin] log μM 0.1760913,8740776 arbitrary units
same,Globalfluo assay 2,[Micafungin] log μM 0.1760913,7981119 arbitrary units
same,Globalfluo assay 3,[Micafungin] log μM 0.1760913,5239211 arbitrary units
same,Mean globalfluo,[Micafungin] log μM 0.1760913,7320369 arbitrary units
same,Survival rate (%),[Micafungin] log μM 0.1760913,14%
same,Globalfluo assay 1,[Micafungin] log μM 0.30103,3351615 arbitrary units
same,Globalfluo assay 2,[Micafungin] log μM 0.30103,4221516 arbitrary units
same,Globalfluo assay 3,[Micafungin] log μM 0.30103,4567106 arbitrary units
same,Mean globalfluo,[Micafungin] log μM 0.30103,4046746 arbitrary units
same,Survival rate (%),[Micafungin] log μM 0.30103,0%
same,Globalfluo assay 1,[Micafungin] log μM 0.39794,5495171 arbitrary units
same,Globalfluo assay 2,[Micafungin] log μM 0.39794,5446233 arbitrary units
same,Globalfluo assay 3,[Micafungin] log μM 0.39794,3835973 arbitrary units
same,Mean globalfluo,[Micafungin] log μM 0.39794,4925792 arbitrary units
same,Survival rate (%),[Micafungin] log μM 0.39794,4%
same,Globalfluo assay 1,[Micafungin] log μM 0.4771213,4782175 arbitrary units
same,Globalfluo assay 2,[Micafungin] log μM 0.4771213,7854686 arbitrary units
same,Globalfluo assay 3,[Micafungin] log μM 0.4771213,4782283 arbitrary units
same,Mean globalfluo,[Micafungin] log μM 0.4771213,5806381 arbitrary units
same,Survival rate (%),[Micafungin] log μM 0.4771213,8%
same,Globalfluo assay 1,[Micafungin] log μM 0.60206,12878800 arbitrary units
same,Globalfluo assay 2,[Micafungin] log μM 0.60206,13369330 arbitrary units
same,Globalfluo assay 3,[Micafungin] log μM 0.60206,12813230 arbitrary units
same,Mean globalfluo,[Micafungin] log μM 0.60206,13020453 arbitrary units
same,Survival rate (%),[Micafungin] log μM 0.60206,37%
same,Globalfluo assay 1,[Micafungin] log μM 0.69897,14177330 arbitrary units
same,Globalfluo assay 2,[Micafungin] log μM 0.69897,11602990 arbitrary units
same,Globalfluo assay 3,[Micafungin] log μM 0.69897,9423392 arbitrary units
same,Mean globalfluo,[Micafungin] log μM 0.69897,11734571 arbitrary units
same,Survival rate (%),[Micafungin] log μM 0.69897,31%
same,Globalfluo assay 1,[Micafungin] log μM 0.7781513,5553126 arbitrary units
same,Globalfluo assay 2,[Micafungin] log μM 0.7781513,6638483 arbitrary units
same,Globalfluo assay 3,[Micafungin] log μM 0.7781513,7505823 arbitrary units
same,Mean globalfluo,[Micafungin] log μM 0.7781513,6565811 arbitrary units
same,Survival rate (%),[Micafungin] log μM 0.7781513,11%
same,Globalfluo assay 1,[Micafungin] log μM 0.845098,7968558 arbitrary units
same,Globalfluo assay 2,[Micafungin] log μM 0.845098,13328410 arbitrary units
same,Globalfluo assay 3,[Micafungin] log μM 0.845098,4864200 arbitrary units
same,Mean globalfluo,[Micafungin] log μM 0.845098,8720389 arbitrary units
same,Survival rate (%),[Micafungin] log μM 0.845098,19%
same,Globalfluo assay 1,[Micafungin] log μM 0.90309,16467230 arbitrary units
same,Globalfluo assay 2,[Micafungin] log μM 0.90309,5461253 arbitrary units
same,Globalfluo assay 3,[Micafungin] log μM 0.90309,9297072 arbitrary units
same,Mean globalfluo,[Micafungin] log μM 0.90309,10408518 arbitrary units
same,Survival rate (%),[Micafungin] log μM 0.90309,26%
same,Globalfluo assay 1,[Micafungin] log μM 0.9542425,17001920 arbitrary units
same,Globalfluo assay 2,[Micafungin] log μM 0.9542425,15398170 arbitrary units
same,Globalfluo assay 3,[Micafungin] log μM 0.9542425,11994410 arbitrary units
same,Mean globalfluo,[Micafungin] log μM 0.9542425,14798167 arbitrary units
same,Survival rate (%),[Micafungin] log μM 0.9542425,44%
same,Globalfluo assay 1,[Micafungin] log μM 1,24112850 arbitrary units
same,Globalfluo assay 2,[Micafungin] log μM 1,13345620 arbitrary units
same,Globalfluo assay 3,[Micafungin] log μM 1,20572260 arbitrary units
same,Mean globalfluo,[Micafungin] log μM 1,19343577 arbitrary units
same,Survival rate (%),[Micafungin] log μM 1,62%
same,Globalfluo assay 1,[Micafungin] log μM 1.041393,8422700 arbitrary units
same,Globalfluo assay 2,[Micafungin] log μM 1.041393,12678250 arbitrary units
same,Globalfluo assay 3,[Micafungin] log μM 1.041393,11578770 arbitrary units
same,Mean globalfluo,[Micafungin] log μM 1.041393,10893240 arbitrary units
same,Survival rate (%),[Micafungin] log μM 1.041393,28%
same,Globalfluo assay 1,[Micafungin] log μM 1.079181,11147190 arbitrary units
same,Globalfluo assay 2,[Micafungin] log μM 1.079181,19591720 arbitrary units
same,Globalfluo assay 3,[Micafungin] log μM 1.079181,15002320 arbitrary units
same,Mean globalfluo,[Micafungin] log μM 1.079181,15247077 arbitrary units
same,Survival rate (%),[Micafungin] log μM 1.079181,46%
